{"source": "patent US20210392889A1", "about": "“COMPOSITIONS COMPRISING PYRIDINE CARBOXYLATE HERBICIDES WITH PDS INHIBITOR HERBICIDES” (Corteva Agriscience LLC, priority 2018, published 2021)", "key": {"[1]": {"test_system": "poinsettia (EPHHL, Euphorbia heterophylla)", "test": "Greenhouse postemergence herbicidal effect, visual injury after 20-22 d", "type": "in vivo", "excerpt": "(§1) Seeds of the desired test plant species were planted in a 90:10% v/v (volume/volume) mixture of PRO-MIX® BX (Premier Tech Horticulture, Quakertown, Pa., USA) and PROFILE® GREENS GRADE™ (Profile Products LLC, Buffalo Grove, Ill., USA) planting mixture, which typically has a pH of 5.2 to 6.2 and an organic matter content of at least 50 percent, in plastic pots with a surface area of 103.2 square centimeters (cm^2). In some aspects, to ensure good germination and healthy plants, a fungicide treatment and/or other chemical or physical treatment was applied. The plants were grown for 7-36 days (d) in a greenhouse with an approximate 14-hour (h) photoperiod which was maintained at about 23° C. during the day and 22° C. during the night. Nutrients and water were added on a regular basis and supplemental lighting was provided with overhead metal halide 1000-Watt lamps as necessary. The plants were employed for testing when they reached the second or third true leaf stage.\n(§2) Emulsifiable concentrates of each of each pyridine carboxylate herbicide (Compound A or Compound B) were prepared at 100 grams acid equivalent per liter (g ae/L). The emulsifiable concentrates also included a safener, cloquintocet-mexyl, at 120 grams active ingredient per liter (g ai/L). An aliquot of each emulsifiable concentrate was placed in a 25 mL glass vial and diluted with an aqueous mixture of 1.25% (v/v) ACTIROB® B esterified rapeseed oil (Bayer Crop Science, Research Triangle Park, N.C., USA) or MSO® Concentrate with LECI-TECH® methylated soybean oil (Loveland Products, Loveland, Colo., USA) to obtain concentrated stock solutions at the highest application rate for each herbicide, based upon a 12 milliliter (mL) application volume at a rate of 187 liters per hectare (L/ha). The concentrated stock solutions were further diluted with an aqueous mixture of 1.25% v/v ACTIROB® B or MSO® Concentrate with LECI-TECH® to obtain stock solutions at reduced application rates for each herbicide. Spray solutions of the herbicide combinations (Compound A or Compound B plus PDS inhibitor herbicide) were prepared by adding weighed amounts or aliquots of the PDS inhibitor herbicide to the stock solutions of Compound A or Compound B to form 12-mL spray solutions in two- or three-way combinations.\n(§3) The spray solutions were applied to the plant material with an overhead Mandel track sprayer equipped with 8002E nozzles calibrated to deliver 187 L/ha over an application area of 0.503 square meters (m^2) at a spray height of 18 inches ([…] centimeters (cm)) above the average plant canopy. Control plants were sprayed in the same manner with the solvent blank. All pyridine carboxylate herbicide (component a) application rates are given as “g ae/ha” and all PDS inhibitor herbicide (component b) application rates are given as “g ai/ha.”\n(§4) The treated plants and control plants were placed in a greenhouse as described above and watered by sub-irrigation to prevent wash-off of the test compounds. After 20-22 d, the condition of the test plants as compared with that of the control plants was determined visually and scored on a scale of 0 to 100 percent where 0 corresponds to no injury and 100 corresponds to complete kill."}, "[2]": {"test_system": "wild chamomile (MATCH, Matricaria chamomilla)", "test": "Greenhouse postemergence herbicidal effect, visual injury after 20-22 d", "type": "in vivo", "details": "for visual injury: Table 1", "excerpt": "as §1, §2, §3, §4"}, "[3]": {"test_system": "wild pansy (VIOTR, Viola tricolor)", "test": "Greenhouse postemergence herbicidal effect, visual injury after 20-22 d", "type": "in vivo", "excerpt": "as §1, §2, §3, §4"}, "[4]": {"test_system": "ivyleaf morningglory (IPOHE, Ipomoea hederacea)", "test": "Greenhouse postemergence herbicidal effect, visual injury after 20-22 d", "type": "in vivo", "excerpt": "as §1, §2, §3, §4"}, "[5]": {"test_system": "barnyardgrass (ECHCG, Echinochloa crus-galli)", "test": "Greenhouse postemergence herbicidal effect, visual injury after 20-22 d", "type": "in vivo", "details": "Table 4", "excerpt": "as §1, §2, §3, §4"}, "[6]": {"test_system": "large crabgrass (DIGSA, Digitaria sanguinalis)", "test": "Greenhouse postemergence herbicidal effect, visual injury after 20-22 d", "type": "in vivo", "details": "Table 4", "excerpt": "as §1, §2, §3, §4"}, "[7]": {"test_system": "soybean (GLXMA=Glycine max)", "test": "Greenhouse postemergence herbicidal effect, visual injury after 20-22 d", "type": "in vivo", "details": "Table 4", "excerpt": "as §1, §2, §3, §4"}, "[8]": {"test_system": "common lambsquarters (CHEAL, Chenopodium album L.)", "test": "Greenhouse postemergence herbicidal effect, visual injury after 20-22 d", "type": "in vivo", "details": "for visual injury: Table 1", "excerpt": "as §1, §2, §3, §4"}, "[9]": {"test_system": "common rice (ORYSA, Oryza sativa)", "test": "Greenhouse postemergence herbicidal effect, visual injury after 20-22 d", "type": "in vivo", "details": "Table 4", "excerpt": "as §1, §2, §3, §4"}, "[10]": {"test_system": "common sunflower (HELAN, Helianthus annuus)", "test": "Greenhouse postemergence herbicidal effect, visual injury after 20-22 d", "type": "in vivo", "excerpt": "as §1, §2, §3, §4"}, "spring wheat (TRZAS)": {"test_system": "spring wheat (TRZAS)", "test": "Greenhouse postemergence phytotoxicity on crop, visual injury after 20-22 d", "type": "in vivo, Triticum aestivum", "details": "for visual injury: Table 1", "excerpt": "as §1, §2, §3, §4"}}}
{"compound": "N#CCOC(=O)c1nc(-c2ccc3cc[nH]c3c2F)c(F)c(N)c1Cl", "note": "[Compound A, cyanomethyl 4-amino-3-chloro-5-fluoro-6-(7-fluoro-1H-indol-6-yl)pyridine-2-carboxylate]", "values": [{"measurement": "visual injury Obs", "setting": "[1]; 7.5 g/ha, Table 5", "value": 91, "unit": "%"}, {"measurement": "visual injury Obs", "setting": "[1]; 7.5 g/ha, Table 6", "value": 91, "unit": "%"}, {"measurement": "visual injury Obs", "setting": "[1]; 10 g/ha, Table 5", "value": 83, "unit": "%"}, {"measurement": "visual injury Obs", "setting": "[1]; 10 g/ha, Table 6", "value": 83, "unit": "%"}, {"measurement": "visual injury", "setting": "[2]; 7.5 g/ha", "value": 20, "unit": "%"}, {"measurement": "visual injury Obs", "setting": "[2]; 7.5 g/ha, Table 2", "value": 13, "unit": "%"}, {"measurement": "visual injury Obs", "setting": "[2]; 7.5 g/ha, Table 3", "value": 0, "unit": "%"}, {"measurement": "visual injury Obs", "setting": "[2]; 7.5 g/ha, Table 7", "value": 18, "unit": "%"}, {"measurement": "visual injury Obs", "setting": "[2]; 7.5 g/ha, Table 8", "value": 8, "unit": "%"}, {"measurement": "visual injury", "setting": "[2]; 10 g/ha", "value": 30, "unit": "%"}, {"measurement": "visual injury Obs", "setting": "[2]; 10 g/ha, Table 2", "value": 15, "unit": "%"}, {"measurement": "visual injury Obs", "setting": "[2]; 10 g/ha, Table 3", "value": 33, "unit": "%"}, {"measurement": "visual injury Obs", "setting": "[2]; 10 g/ha, Table 7", "value": 30, "unit": "%"}, {"measurement": "visual injury Obs", "setting": "[2]; 10 g/ha, Table 8", "value": 15, "unit": "%"}, {"measurement": "visual injury Obs", "setting": "[2]; 15 g/ha, Table 8", "value": 10, "unit": "%"}, {"measurement": "visual injury Obs", "setting": "[3]; 7.5 g/ha, Table 4", "value": 10, "unit": "%"}, {"measurement": "visual injury Obs", "setting": "[3]; 7.5 g/ha, Table 5", "value": 3, "unit": "%"}, {"measurement": "visual injury Obs", "setting": "[3]; 7.5 g/ha, Table 6", "value": 3, "unit": "%"}, {"measurement": "visual injury Obs", "setting": "[3]; 10 g/ha, Table 4", "value": 18, "unit": "%"}, {"measurement": "visual injury Obs", "setting": "[3]; 10 g/ha, Table 5", "value": 3, "unit": "%"}, {"measurement": "visual injury Obs", "setting": "[3]; 10 g/ha, Table 6", "value": 3, "unit": "%"}, {"measurement": "visual injury Obs", "setting": "[4]; 7.5 g/ha, Table 4", "value": 3, "unit": "%"}, {"measurement": "visual injury Obs", "setting": "[4]; 7.5 g/ha, Table 5", "value": 5, "unit": "%"}, {"measurement": "visual injury Obs", "setting": "[4]; 7.5 g/ha, Table 6", "value": 5, "unit": "%"}, {"measurement": "visual injury Obs", "setting": "[4]; 10 g/ha, Table 4", "value": 8, "unit": "%"}, {"measurement": "visual injury Obs", "setting": "[4]; 10 g/ha, Table 5", "value": 0, "unit": "%"}, {"measurement": "visual injury Obs", "setting": "[4]; 10 g/ha, Table 6", "value": 0, "unit": "%"}, {"measurement": "visual injury Obs", "setting": "[5]; 7.5 g/ha", "value": 73, "unit": "%"}, {"measurement": "visual injury Obs", "setting": "[5]; 10 g/ha", "value": 78, "unit": "%"}, {"measurement": "visual injury Obs", "setting": "[6]; 7.5 g/ha", "value": 45, "unit": "%"}, {"measurement": "visual injury Obs", "setting": "[6]; 10 g/ha", "value": 25, "unit": "%"}, {"measurement": "visual injury Obs", "setting": "[7]; 7.5 g/ha", "value": 93, "unit": "%"}, {"measurement": "visual injury Obs", "setting": "[7]; 10 g/ha", "value": 95, "unit": "%"}, {"measurement": "visual injury", "setting": "[8]; 7.5 g/ha", "value": 88, "unit": "%"}, {"measurement": "visual injury Obs", "setting": "[8]; 7.5 g/ha, Table 2", "value": 70, "unit": "%"}, {"measurement": "visual injury Obs", "setting": "[8]; 7.5 g/ha, Table 3", "value": 60, "unit": "%"}, {"measurement": "visual injury Obs", "setting": "[8]; 7.5 g/ha, Table 4", "value": 97, "unit": "%"}, {"measurement": "visual injury Obs", "setting": "[8]; 7.5 g/ha, Table 7", "value": 70, "unit": "%"}, {"measurement": "visual injury Obs", "setting": "[8]; 7.5 g/ha, Table 8", "value": 70, "unit": "%"}, {"measurement": "visual injury", "setting": "[8]; 10 g/ha", "value": 93, "unit": "%"}, {"measurement": "visual injury Obs", "setting": "[8]; 10 g/ha, Table 2", "value": 83, "unit": "%"}, {"measurement": "visual injury Obs", "setting": "[8]; 10 g/ha, Table 3", "value": 90, "unit": "%"}, {"measurement": "visual injury Obs", "setting": "[8]; 10 g/ha, Table 4", "value": 93, "unit": "%"}, {"measurement": "visual injury Obs", "setting": "[8]; 10 g/ha, Table 7", "value": 78, "unit": "%"}, {"measurement": "visual injury Obs", "setting": "[8]; 10 g/ha, Table 8", "value": 78, "unit": "%"}, {"measurement": "visual injury Obs", "setting": "[8]; 15 g/ha, Table 8", "value": 83, "unit": "%"}, {"measurement": "visual injury Obs", "setting": "[9]; 7.5 g/ha", "value": 13, "unit": "%"}, {"measurement": "visual injury Obs", "setting": "[9]; 10 g/ha", "value": 10, "unit": "%"}, {"measurement": "visual injury Obs", "setting": "[10]; 7.5 g/ha, Table 5", "value": 83, "unit": "%"}, {"measurement": "visual injury Obs", "setting": "[10]; 7.5 g/ha, Table 6", "value": 83, "unit": "%"}, {"measurement": "visual injury Obs", "setting": "[10]; 10 g/ha, Table 5", "value": 88, "unit": "%"}, {"measurement": "visual injury Obs", "setting": "[10]; 10 g/ha, Table 6", "value": 88, "unit": "%"}, {"measurement": "visual injury", "setting": "spring wheat (TRZAS); 7.5 g/ha", "value": 0, "unit": "%"}, {"measurement": "visual injury Obs", "setting": "spring wheat (TRZAS); 7.5 g/ha, Table 2", "value": 0, "unit": "%"}, {"measurement": "visual injury Obs", "setting": "spring wheat (TRZAS); 7.5 g/ha, Table 3", "value": 0, "unit": "%"}, {"measurement": "visual injury Obs", "setting": "spring wheat (TRZAS); 7.5 g/ha, Table 5", "value": 0, "unit": "%"}, {"measurement": "visual injury Obs", "setting": "spring wheat (TRZAS); 7.5 g/ha, Table 6", "value": 0, "unit": "%"}, {"measurement": "visual injury Obs", "setting": "spring wheat (TRZAS); 7.5 g/ha, Table 7", "value": 0, "unit": "%"}, {"measurement": "visual injury Obs", "setting": "spring wheat (TRZAS); 7.5 g/ha, Table 8", "value": 3, "unit": "%"}, {"measurement": "visual injury", "setting": "spring wheat (TRZAS); 10 g/ha", "value": 0, "unit": "%"}, {"measurement": "visual injury Obs", "setting": "spring wheat (TRZAS); 10 g/ha, Table 2", "value": 0, "unit": "%"}, {"measurement": "visual injury Obs", "setting": "spring wheat (TRZAS); 10 g/ha, Table 3", "value": 0, "unit": "%"}, {"measurement": "visual injury Obs", "setting": "spring wheat (TRZAS); 10 g/ha, Table 5", "value": 0, "unit": "%"}, {"measurement": "visual injury Obs", "setting": "spring wheat (TRZAS); 10 g/ha, Table 6", "value": 0, "unit": "%"}, {"measurement": "visual injury Obs", "setting": "spring wheat (TRZAS); 10 g/ha, Table 7", "value": 0, "unit": "%"}, {"measurement": "visual injury Obs", "setting": "spring wheat (TRZAS); 10 g/ha, Table 8", "value": 3, "unit": "%"}, {"measurement": "visual injury Obs", "setting": "spring wheat (TRZAS); 15 g/ha, Table 8", "value": 0, "unit": "%"}]}
